Assay [1] has as its system Rat Chronic Constriction Injury Model. The following applies: 0.02 mg/kg/day subcutaneously; vs. 45% for unloaded polymer depots; FIG. 3.
Excerpt: (§1) A 2-month chronic constriction injury (CCI) model of neuropathic pain was used to evaluate different formulations of a clonidine, encapsulated in bioerodable polymers compared to clonidine given subcutaneously (SC).
(§2) The inventors evaluated the efficacy of a five Month Clonidine/Polymer Drug Depot in the Rat Chronic Constriction Injury Model. The animal model was the Bennett Model (Wistar rat). The purpose: To determine whether a five month polymer clonidine-eluting depot can improve pain associated behavioral responses in a rat model of neuropathic pain.
(§3) Experimental Design: Four loose chromic gut ligatures, 1 mm apart, were tied around the common sciatic nerve at mid-thigh. Each animal received treatment of test or control article-according to the dosing described in Table 5.
(§4) The inventors have conducted the present study for a period of 64 days and have employed the following two tests: (1) the Hargreaves test; and (2) the von Frey test. The Hargreaves Tests of Thermal Hyperalgesia were conducted on days 7, 14, 21, 28, 35, 42, 49, 56 and 63. The von Frey monofilament test of mechanical allodynia (performed the day following Thermal testing) were conducted on days-8, 15, 22, 29, 36, 43, 50, 57 and 64.
For assay [2] the test system is unchanged. The following applies: 0.02 mg/kg/day subcutaneously; compared to unloaded polymer depots; FIG. 4.
Excerpt: as §1, §2, §3, §4

As for `Clc1cccc(Cl)c1N=C1NCCN1` [clonidine, 2,6-dichloro-N-2-imidazolidinyldenebenzenamine], the “pain behavioral response (percentage of baseline), thermal hyperalgesia” value in assay [1] is on record as 58%. Further, the “pain behavioral response (percentage of baseline), mechanical allodynia” value in assay [2] is listed as “reduced the behavioral response”.

These data come from patent publication US20090263451A1, “Anti-Inflammatory and/or Analgesic Agents for Treatment of Myofascial Pain” (Warsaw Orthopedic, Inc., priority 2008, published 2009).
